{"source": "patent US8628792B2", "about": "“Drug cores for sustained release of therapeutic agents” (Mati Therapeutics, Inc., priority 2007, dated 2014)", "assay": "In vitro elution study of drug cores (drug in silicone matrix in polyimide tube) in 7.4 pH buffer, HPLC", "assay_type": "physicochemical", "settings": "for Duration: calculated time when ~10% of drug remains", "text": "Drug cores as described above have been fabricated with different cross sectional sizes of 0.006 inches, 0.012 inches, and 0.025 inches, and drug concentrations of 5%, 10% and 20% in a silicone matrix. Theses drug cores can be made with a Syringe Tube and Cartridge Assembly, Mixing Latanoprost with Silicone, and Injecting the mixture into a polyimide tube which is cut to desired lengths and sealed. The length of the drug cores were approximately 0.80 to 0.95 mm, which for a diameter of 0.012 inches (0.32 mm) corresponds to total Latanoprost content in the drug cores of approximately 3.5 μg, 7 μg and 14 μg for concentrations of 5%, 10% and 20%, respectively.\nMix Latanoprost with Silicone. Prepare Latanoprost. Latanoprost is provided as a 1% solution in methylacetate. Place the appropriate amount of solution into a dish and using a nitrogen stream, evaporate the solution until only the Latanoprost remains. Place the dish with the Latanoprost oil under vacuum for 30 minutes. Combine Latanoprost with silicone. Prepare three different concentrations of Latanoprost (5%, 10% and 20%) in silicone Nusil 6385 and inject it into tubing of different diameters (0.006 in, 0.012 in and 0.025 inches) to generate 3×3 matrixes. The percent of Latanoprost to silicone is determined by the total weight of the drug matrix. Calculation: Weight of Latanoprost/(weight of Latanoprost+weight of silicone)×100=percent drug.\nInject tube. 1. Insert Cartridge and Polyimide tubes assembly into 1 ml syringe. 2. Add one drop of catalyst, (MED-6385 Curing Agent) in the syringe. 3. Force excess catalyst out of the polyimide tube with clean air. 4. Fill syringe with silicone drug matrix. 5, Inject tube with drug matrix until the tube is filled or the syringe plunger becomes too difficult to push. 6. Close off the distal end of the polyimide tube and maintain pressure until the silicone begins to solidify. 7. Allow to cure at room temperature for 12 hours. 8. Place under vacuum for 30 minutes. 9. Place tube in right size trim fixture (prepared in house to hold different size tubing) and cut drug inserts to length (0.80-0.95 mm).\nTesting. Elution study (in vitro). 1. Place 10 plugs of same size and same concentration per centrifuge tube and add 1.5 ml of 7.4 pH buffer solution to it. 2. Change the solvent with fresh 7.4 pH buffer after appropriate time. 3. Take HPLC of the elutant at 210 nm with PDA detector 2996 using Sunfire C18, 3 mm×10 mm column (Waters Corporation, Milford, Mass.). Acetonitrile and water mixture is used for gradient elution. Calibration was done in house before and after each analysis, using in-house standards with precisely weighed concentration of Latanoprost. 4. Calculate the amount of drug release per day per device for different size tubings having different concentrations of Latanoprost. 5. Plot elution rate vs area and concentration for day 1 and day 14.", "key": {"[1]": {"settings": "formulations A-D (silicone 4011 or 6385, 10-20% Latanoprost, 0-20% NaCl), non-sterile cores"}}, "data": [{"smiles": "CC(C)OC(=O)CCC/C=C\\C[C@@H]1[C@@H](CC[C@@H](O)CCc2ccccc2)[C@H](O)C[C@@H]1O", "note": "[Latanoprost]", "values": [{"measurement": "elution rate", "setting": "7 μg core (10%, 0.32 mm diameter, 0.95 mm long), 10 to 20 days, compared with 14 μg core", "value": "comparable rates"}, {"measurement": "elution rate", "setting": "14 μg core (20%, 0.32 mm diameter, 0.95 mm long), from about 10 to 40 days", "value": "approximately 100 ng per day"}, {"measurement": "relative elution rate", "setting": "20% latanoprost in 6380 material with 2.5% crosslinker, 1, 4, 7 and 14 days, vs 6385 material", "value": "slightly lower elution rate"}, {"measurement": "relative elution rate", "setting": "20% latanoprost in 6380 material with 5% crosslinker, all time points", "value": "lowest elution rate"}, {"measurement": "relative elution rate", "setting": "20% latanoprost in 6385 material with 2.5% crosslinker, 1, 4, 7 and 14 days", "value": "highest elution rates"}, {"measurement": "relative elution rate", "setting": "6385 material with 5% latanoprost, all time periods", "value": "lowest rate"}, {"measurement": "elution rate", "setting": "6385 material with 5, 10, 20, 30 and 40% latanoprost, all samples, by 7 days", "value": "below 500 ng per day"}, {"measurement": "elution rate, both ends open/2 compared with one end open", "setting": "6385 material with 20% latanoprost, all time points", "value": "very close to the one end open data"}, {"measurement": "relative elution rate", "setting": "6385 material with 40% latanoprost, all time periods", "value": "highest rate"}, {"measurement": "initial elution of Latanoprost from plug", "setting": "buffered saline elution system, initial", "value": "approximately 500 ng per day"}, {"measurement": "elution rate after dropping off", "setting": "buffered saline elution system, within 7-14 days, depending on initial concentration", "value": "approximately 100 ng/day"}, {"measurement": "Latanoprost released (elution rate)", "setting": "day 1, 0.006 inch diameter core, exposed surface area approx 0.02 mm2", "value": "about 200 ng"}, {"measurement": "Latanoprost released (elution rate)", "setting": "day 1, 0.012 inch diameter core, exposed surface area approx 0.07 mm2", "value": "~400", "unit": "ng"}, {"measurement": "Latanoprost released (elution rate)", "setting": "day 1, 0.025 inch diameter core, exposed surface area approx 0.32 mm2", "value": "~1200", "unit": "ng"}, {"measurement": "Latanoprost released (elution rate)", "setting": "day 14, 0.006 inch diameter core, approx 0.02 mm2", "value": "about 25 ng"}, {"measurement": "Latanoprost released (elution rate)", "setting": "day 14, 0.012 inch (0.32 mm) diameter core, approx 0.07 mm2", "value": "~100", "unit": "ng"}, {"measurement": "Latanoprost released (elution rate)", "setting": "day 14, 0.025 inch diameter core, approx 0.32 mm2", "value": "~300", "unit": "ng"}, {"measurement": "elution rate", "setting": "e-beam sterile core, 20% latanoprost in 6385, first day", "value": "about 450 ng/day"}, {"measurement": "elution rate by 3 weeks (21 days)", "setting": "[1]", "value": "about 100 ng per device per day"}, {"measurement": "initial elution rate", "setting": "[1]", "value": "approximately 300 ng per device per day"}, {"measurement": "elution rate", "setting": "non-sterile core, 20% latanoprost in 6385, 14 day", "value": "about 150 ng/day"}, {"measurement": "elution rate", "setting": "non-sterile core, 20% latanoprost in 6385, days 4 and 7", "value": "about 400 ng/day"}, {"measurement": "elution rate", "setting": "non-sterile core, 20% latanoprost in 6385, first day", "value": "~1400", "unit": "ng/day"}, {"measurement": "elution rate", "setting": "sterile core, 20% latanoprost in 6385, 14 day", "value": 200, "unit": "ng/day"}, {"measurement": "elution rate", "setting": "sterile core, 20% latanoprost in 6385, days 4 and 7", "value": "about 400 ng/day"}, {"measurement": "Duration", "setting": "total Latanoprost content 3.5 μg", "value": "~25", "unit": "days"}, {"measurement": "Duration", "setting": "total Latanoprost content 7 μg", "value": "~45", "unit": "days"}, {"measurement": "Duration", "setting": "total Latanoprost content 14 μg", "value": "~100", "unit": "days"}]}]}
